# Patent US20050014849A1, “Antifungal phenylethylene” (priority 2001, published 2005)
# Where two headings read alike, the source gives them in different places.
# What was measured:
# [1] = system: A. flavus (ASU culture collection); experiment: Broth macrodilution MIC/MFC, filamentous fungi; type: cell-based, Aspergillus flavus
# Method: Susceptibility testing of filamentous fungi was also conducted. Broth macrodilution susceptibility testing of P. lilacinus, Rhizopus spp. and Aspergillus spp. was performed in accordance with a proposed standardized procedure with slight modification. To induce conidium and sporangiospore formation, fungi were grown on PDA slants at 35° C. for 6 days (P. lilacinus, Rhizopus spp., all Aspergillus species except A. nidulans) or 3 days (A. nidulans). Fungal slants were covered with sterile 0.85% NaCl (P. lilacinus, Rhizopus spp., all Aspergillus species except A. nidulans) or 0.05% Tween 80 (A. nidulans), and suspensions were made by gently probing the colonies with the tip of a sterile Pasteur pipette. The resulting mixture of hyphal fragments and conidia or sporangiospores was withdrawn and transferred to a sterile clear microcentrifuge tube, and heavy particles were allowed to settle for 10 min. […] Susceptibility to TMPN was then determined by broth macrodilution as described above for yeast isolates. […]
# (§1) Minimum fungicidal concentrations (MFCs) were determined by subculturing 0.1 ml from each tube with no visible growth in the MIC broth macrodilution series onto the appropriate drug-free plates (see Fungal Strains section above).
# [2] = system: C. parapsilosis ATCC 22019; experiment: Broth macrodilution MIC/MFC; type: cell-based, Candida parapsilosis
# Method: (§2) TMPN was screened against yeasts by the broth macrodilution assay according to the NCCLS [7]. Yeasts were suspended and diluted as recommended to yield final inocula ranging from 0.5-2.5×10^3 cfu/ml. Tests were performed in sterile 12 by 75 mm plastic tubes containing two-fold dilutions of TMPN in 0.165 M morpholinepropanesulfonic acid buffered RPMI 1640 medium (pH 7.0). One tube was again left drug free (but contained an equivalent volume of DMSO) for a turbidity control. Tubes were incubated without agitation at the appropriate temperature (see Fungal Strains section above). MICs were determined after 72 h for Cryptococcus and after 48 h for other yeast genera. The MIC was defined as the lowest concentration of TMPN that inhibited all visible growth of the test organism (optically clear).
# as §1
# C. parapsilosis (10) = experiment: Broth macrodilution MIC/MFC; type: cell-based, Candida parapsilosis
# Method: as §2, §1
# C. neoformans ATCC 14116 = experiment: Broth macrodilution MIC/MFC; type: cell-based, Cryptococcus neoformans
# Method: as §2, §1
# C. neoformans (24) = experiment: Broth macrodilution MIC/MFC; type: cell-based, Cryptococcus neoformans
# Method: as §2, §1
# C. neoformans ATCC 32045 = experiment: Broth macrodilution MIC/MFC; type: cell-based, Cryptococcus neoformans
# Method: as §2, §1
# C. neoformans ATCC 66031 = experiment: Broth macrodilution MIC/MFC; type: cell-based, Cryptococcus neoformans
# Method: as §2, §1
# T. mucoides ATCC 90046 = experiment: Broth macrodilution MIC/MFC; type: cell-based, Trichosporon mucoides
# Method: as §2, §1
# [3] = system: Aspergillus fumigatus ATCC 96918; experiment: Broth macrodilution MIC/MFC, filamentous fungi; type: cell-based; conditions: for MFC / MIC: Aspergillus fumigatus
# Method: Susceptibility testing of filamentous fungi was also conducted. Broth macrodilution susceptibility testing of P. lilacinus, Rhizopus spp. and Aspergillus spp. was performed in accordance with a proposed standardized procedure with slight modification. To induce conidium and sporangiospore formation, fungi were grown on PDA slants at 35° C. for 6 days (P. lilacinus, Rhizopus spp., all Aspergillus species except A. nidulans) or 3 days (A. nidulans). Fungal slants were covered with sterile 0.85% NaCl (P. lilacinus, Rhizopus spp., all Aspergillus species except A. nidulans) or 0.05% Tween 80 (A. nidulans), and suspensions were made by gently probing the colonies with the tip of a sterile Pasteur pipette. The resulting mixture of hyphal fragments and conidia or sporangiospores was withdrawn and transferred to a sterile clear microcentrifuge tube, and heavy particles were allowed to settle for 10 min. The upper homogenous suspension was transferred to a sterile microcentrifuge tube, vortexed for 15 s, adjusted spectrophotometrically, and diluted in sterile 0.165 M MOPS-buffered RPMI medium, pH 7.0, to yield final inocula ranging from 0.5-2.5×10^3 cfu/ml. Susceptibility to TMPN was then determined by broth macrodilution as described above for yeast isolates. MICs were read after 48 h The MIC was defined as the lowest concentration of TMPN that inhibited all visible growth of the test organism (optically clear).
# as §1
# (§3) Possible host effects were also evaluated. Broth macrodilution assays were performed with RPMI medium prepared at pH 5, pH 6, and pH 7, and in RPMI medium with and without 50% normal human serum (Lampire Biological Labs). The pH experiments were performed twice on separate days.
# T. asahii ATCC 20039 = experiment: Broth macrodilution MIC/MFC; type: cell-based, Trichosporon asahii
# Method: as §2, §1
# C. ater ATCC 14247 = experiment: Broth macrodilution MIC/MFC; type: cell-based, Cryptococcus ater
# Method: as §2, §1
# C. albicans ATCC 90028 = experiment: Broth macrodilution MIC/MFC; type: cell-based, Candida albicans; conditions: for MFC: Candida albicans ATCC 90028; for MIC: Candida albicans
# Method: as §2, §1, §3
# [4] = Aspergillus fumigatus ATCC 96918
# [5] = ATCC96918, Aspergillus fumigatus ATCC 96918, 50% human serum
# [6] = ATCC96918, Aspergillus fumigatus ATCC 96918, no serum
# [7] = ATCC96918, pH 5, Aspergillus fumigatus ATCC 96918, pH 5
# [8] = ATCC96918, pH 5, Aspergillus fumigatus ATCC 96918, pH 5, repeat experiment
# [9] = ATCC96918, pH 6, Aspergillus fumigatus ATCC 96918, pH 6
# [10] = ATCC96918, pH 6, Aspergillus fumigatus ATCC 96918, pH 6, repeat experiment
# [11] = ATCC96918, pH 7, Aspergillus fumigatus ATCC 96918, pH 7
# [12] = ATCC96918, pH 7, Aspergillus fumigatus ATCC 96918, pH 7, repeat experiment
structure (smiles),measurement,setting,value
"COc1cc(C=C[N+](=O)[O-])cc(OC)c1OC [TMPN, 1-(3′,4′,5′-trimethoxyphenyl)-2-nitro-ethylene]",MFC Range,[1],>64 µg/mL
same,MIC Range,[1],16 µg/mL
same,MFC Range,[2],32 µg/mL
same,MIC Range,[2],16 µg/mL
same,MIC Range,C. parapsilosis (10),16 to 32 µg/mL
same,MFC Range,C. neoformans ATCC 14116,16 µg/mL
same,MIC Range,C. neoformans ATCC 14116,8 µg/mL
same,MFC 50% (MFC at which 50% of the strains are killed),C. neoformans (24); C. neoformans (24),8 µg/mL
same,MFC 90% (MFC at which 90% of the strains are killed),C. neoformans (24); C. neoformans (24),16 µg/mL
same,MFC Range,C. neoformans (24); C. neoformans (24),4 to 32 µg/mL
same,MIC Range,C. neoformans (24); C. neoformans (24),2 to 16 µg/mL
same,share of isolates with MFC/MIC ratio <2,C. neoformans (24); C. neoformans clinical isolates,96%
same,share of isolates with MFC/MIC ratio ≦2,C. neoformans (24); Cryptococcus neoformans clinical isolates,96%
same,MIC50,"C. neoformans (24); Cryptococcus neoformans, C. neoformans (24), read-out: MIC 50% (MIC at which 50% of the strains are inhibited)",4 µg/mL
same,MIC90,"C. neoformans (24); Cryptococcus neoformans, C. neoformans (24), read-out: MIC 90% (MIC at which 90% of the strains are inhibited)",8 µg/mL
same,MFC Range,C. neoformans ATCC 32045,4 µg/mL
same,MIC Range,C. neoformans ATCC 32045,4 µg/mL
same,MFC Range,C. neoformans ATCC 66031,4 µg/mL
same,MIC Range,C. neoformans ATCC 66031,2 µg/mL
same,MFC Range,T. mucoides ATCC 90046,32 µg/mL
same,MIC Range,T. mucoides ATCC 90046,16 µg/mL
same,MFC Range,[3]; [4],>64 µg/mL
same,MIC Range,[3]; [4],8 µg/mL
same,MFC,[3]; [5],> 64 µg/mL
same,MIC,[3]; [5],16 µg/mL
same,MFC,[3]; [6],16 µg/mL
same,MIC,[3]; [6],8 µg/mL
same,MFC,[3]; [7],32 µg/mL
same,MIC,[3]; [7],4 µg/mL
same,MFC,[3]; [8],> 64 µg/mL
same,MIC,[3]; [8],8 µg/mL
same,MFC,[3]; [9],32 µg/mL
same,MIC,[3]; [9],4 µg/mL
same,MFC,[3]; [10],> 64 µg/mL
same,MIC,[3]; [10],8 µg/mL
same,MFC,[3]; [11],32 µg/mL
same,MIC,[3]; [11],4 µg/mL
same,MFC,[3]; [12],> 64 µg/mL
same,MIC,[3]; [12],8 µg/mL
same,MFC Range,T. asahii ATCC 20039,16 µg/mL
same,MIC Range,T. asahii ATCC 20039,8 µg/mL
same,MFC Range,C. ater ATCC 14247,16 µg/mL
same,MIC Range,C. ater ATCC 14247,8 µg/mL
same,MFC,"C. albicans ATCC 90028; ATCC90028, no serum, read-out: MFC",32 µg/mL
same,MFC,"C. albicans ATCC 90028; ATCC90028, pH 5, read-out: MFC",32 µg/mL
same,MFC,"C. albicans ATCC 90028; ATCC90028, pH 6, read-out: MFC",32 µg/mL
same,MFC,"C. albicans ATCC 90028; ATCC90028, pH 7, read-out: MFC",32 µg/mL
same,MFC Range,C. albicans ATCC 90028; C. albicans ATCC 90028,32 µg/mL
same,MIC Range,C. albicans ATCC 90028; C. albicans ATCC 90028,32 µg/mL
same,MFC,C. albicans ATCC 90028; 20 μg/ml bovine serum albumin,32 (32) μg/ml
same,MFC,C. albicans ATCC 90028; 40 μg/ml bovine serum albumin,32 µg/mL
same,MFC,C. albicans ATCC 90028; no bovine serum albumin,32 (32) μg/ml
same,MFC,"C. albicans ATCC 90028; pH 5, repeat experiment","32 (32), 32 (32) μg/ml"
same,MFC,"C. albicans ATCC 90028; pH 6, repeat experiment","32 (32), 32 (32) μg/ml"
same,MFC,"C. albicans ATCC 90028; pH 7, repeat experiment","32 (32), 32 (32) μg/ml"
same,MIC,"C. albicans ATCC 90028; ATCC90028, Candida albicans ATCC 90028, 20 μg/ml bovine serum albumin",32 µg/mL
same,MIC,"C. albicans ATCC 90028; ATCC90028, Candida albicans ATCC 90028, 40 μg/ml bovine serum albumin",16 µg/mL
same,MIC,"C. albicans ATCC 90028; ATCC90028, Candida albicans ATCC 90028, 50% human serum",> 64 µg/mL
same,MIC,"C. albicans ATCC 90028; ATCC90028, Candida albicans ATCC 90028, no bovine serum albumin",32 µg/mL
same,MIC,"C. albicans ATCC 90028; ATCC90028, Candida albicans ATCC 90028, no serum",32 µg/mL
same,MIC,"C. albicans ATCC 90028; ATCC90028, pH 5, Candida albicans ATCC 90028, pH 5",32 µg/mL
same,MIC,"C. albicans ATCC 90028; ATCC90028, pH 5, Candida albicans ATCC 90028, pH 5, repeat experiment",32 µg/mL
same,MIC,"C. albicans ATCC 90028; ATCC90028, pH 6, Candida albicans ATCC 90028, pH 6",32 µg/mL
same,MIC,"C. albicans ATCC 90028; ATCC90028, pH 6, Candida albicans ATCC 90028, pH 6, repeat experiment",32 µg/mL
same,MIC,"C. albicans ATCC 90028; ATCC90028, pH 7, Candida albicans ATCC 90028, pH 7",32 µg/mL
same,MIC,"C. albicans ATCC 90028; ATCC90028, pH 7, Candida albicans ATCC 90028, pH 7, repeat experiment",32 µg/mL
